Structures can show the parent of a compound that is named as a salt. Each block holds one compound with its values, some of them ahead of it.
What was measured:
[1] = Dog bioavailability study (PK after single oral administration of capsules); assay type: in vivo, beagle dogs; conditions: for Cmax / Exposure AUC / Tmax: listed as HCl•trihydrate
Experimental: The dogs are not fasted before dosing, and have free access to water. Every day of the treatment, a half food ration is provided after the T0 blood sampling, 8 to 17 min before treatment, and the second half ration is given just after dosing or 1 h after treatment for period 2. A 3 days washout period is ensured between treatments.
The capsule composition is described in the table below.
The capsules are administered orally with water (5-10 mL), to provide good oesophageal transit. Each animal is checked at least once daily.
Blood is collected from the jugular vein into lithium heparinised tubes at T0 (before food administration) and then at 1 h, 2 h, 4 h, 6 h, 8 h, 10 h, and 24 h post treatment.
Plasma is then obtained from blood by centrifugation (2500 g for 10 min at 4° C.), and stored at −20° C. until analysis.
After vortex mixing and centrifugation at 4° C., the supernatants are diluted with a 0.5 volume of HPLC grade water in a midi-eppendorf 96-well plate. The plate is sealed and shaken to ensure sample homogeneity prior to analysis.
Pharmacokinetic analysis is performed using WinNonlin™ software version 5.3, using concentrations from individual animals. Non-compartmental analysis is applied to determine the PK parameters (Cmax, Tmax, AUC0-last, t1/2, etc . . . )
Concentrations below the limit of detection are set to zero for descriptive statistics and PK parameter calculations.

[2] = Accelerated stability study of Compound 1.HCl.3H2O (FT-IR, DSC, XRPD); assay type: physicochemical; conditions: 3 months
Description: Samples of [Compound 1. HCl.3H2O] are stored under conditions to evaluate chemical stability and physical stability as described in the table below: [table] Samples are taken at T0, then every month up to 3 months, and analysed by FT-IR, DSC, and XRPD.

[3] = Thermodynamic aqueous solubility by HPLC; assay type: physicochemical; conditions: water
Experimental: (§1) The mixture is cooled to 25° C. at 1° C./min and stirred at 25° C. for 22 h. The solid is isolated by vacuum filtration and dried under suction.

[4] = Salt study: XRPD analysis / hygroscopicity of the hydrochloric acid salt; assay type: physicochemical; conditions: salt containing 4-5% water
Experimental: as §1

[5] = dogs, oral capsules, on average and at the 2 capsule strengths
[6] = male beagle dogs, single oral administration, capsules, dose 25 mg/kg
[7] = male beagle dogs, single oral administration, capsules, dose 100 mg/kg

- AUC ([1]; male, beagle, dog, plasma, po, 100 mg/kg, male beagle dogs, single oral administration, capsules, dose 100 mg/kg, read-out: Exposure AUC): 11100 ng·h/mL
SMILES: O=C(Nc1nc2cccc(-c3ccc(CN4CCS(=O)(=O)CC4)cc3)n2n1)C1CC1 [Compound 1, cyclopropanecarboxylic acid {5-[4-(1,1-dioxo-thiomorpholin-4-ylmethyl)-phenyl]-[1,2,4]triazolo[1,5-a]pyridin-2-yl}-amide]

- chemical and physical stability ([2]; 25° C./60% RH open, 40° C./75% RH open, 50° C. closed, RT/<5%, 56%, 75% RH open): stable under all conditions
- change in crystallinity ([2]; all storage conditions of Table VI): no change in crystallinity
- half-life ([1]; dog, plasma, male beagle dogs, single oral administration, one range printed across both forms and both doses): 4.43 to 8.96 h
- in vivo exposure compared with Compound 1 (free base) [1, 5]: improved exposure
- rate of absorption compared with Compound 1 (free base) [1, 5]: more rapidly absorbed
- Cmax [1, 6]: 3050 ng/mL
- Exposure AUC [1, 6]: 33600 ng·h/mL
- Tmax [1, 6]: 2.0 h
- Cmax [1, 7]: 2630 ng/mL
- Exposure AUC [1, 7]: 21700 ng·h/mL
- Tmax [1, 7]: 2.0 h
SMILES: O=C(Nc1nc2cccc(-c3ccc(CN4CCS(=O)(=O)CC4)cc3)n2n1)C1CC1 [Compound 1.HCl.3H2O, cyclopropanecarboxylic acid {5-[4-(1,1-dioxo-thiomorpholin-4-ylmethyl)-phenyl]-[1,2,4]triazolo[1,5-a]pyridin-2-yl}-amide]

- solubility [3]: 1900 µg/mL
- hygroscopicity of the salt [4]: non-hygroscopic
SMILES: O=C(Nc1nc2cccc(-c3ccc(CN4CCS(=O)(=O)CC4)cc3)n2n1)C1CC1 [hydrochloric acid salt of Compound 1, cyclopropanecarboxylic acid {5-[4-(1,1-dioxo-thiomorpholin-4-ylmethyl)-phenyl]-[1,2,4]triazolo[1,5-a]pyridin-2-yl}-amide]

Reference: patent US10493158B2, “Pharmaceutical compositions for the treatment of inflammatory disorders” (GALAPAGOS NV, priority 2014, dated 2019)
